# Reference: patent US20240165097A1, “PHARMACEUTICAL COMPOSITION FOR THE TREATMENT OF ALZHEIMER'S DISEASE OR DEMENTIA” (Heptares Therapeutics Limited, priority 2021, published 2024)
# Marks after values point to notes of the source that are not given here.
# Test system: patients with mild-to-moderate AD
# Test: Example D: safety and tolerability, adjunctive to donepezil 10 mg per day, 4 weeks
# Assay type: in vivo, human
# Details: for Abdominal pain incidence / Accidental overdose incidence / Decreased lymphocyte count incidence / Decreased white blood cell count incidence / Diarrhoea incidence / Fatigue incidence / Headache incidence / Hyperhidrosis incidence / Lymphopenia incidence / Nausea incidence / Number of TEAEs / SAE incidence / TEAE Severity: Mild / TEAE Severity: Moderate / TEAE Severity: Severe / TEAE incidence / TEAE leading to discontinuation incidence / Treatment-related TEAE incidence / Urinary tract infection incidence / Viral upper respiratory tract infection incidence: randomised dose; for TEAE incidence during maintenance (Days 16-28) / TEAE incidence during titration (Days 1-15): Day 16 dose received
# Protocol: The study was an outpatient study conducted across 18 centres in Poland, Czech Republic, Spain, and Slovakia (NCT03456349, registered at clinicaltrials.gov). Patients were assessed for eligibility during a 42-day screening period and randomised equally to either placebo or a HTL0018318 target dose of 5 mg, 15 mg, or 25 mg per day (FIG. 5A). HTL0018318 was titrated to the target dose during a 2-week titration period (FIG. 5B); investigators could maintain or reduce the dose to limit tolerability/safety issues throughout this period. The study was conducted in accordance with the principles of the Declaration of Helsinki, the International Council for Harmonisation good clinical practice guidelines, and according to all appropriate country regulatory requirements. Relevant independent ethics committees provided approval, and all patients (or their caregiver) provided written informed consent.
# The primary endpoint of this study was to evaluate the safety and tolerability of HTL0018318. Safety and tolerability were assessed via the incidence and severity of treatment-emergent adverse events (TEAEs), and via evaluation during study visits of vital signs (including blood pressure [BP] and heart rate [HR]), electrocardiogram (ECG) measurements, physical and neurological examinations, laboratory haematology, clinical chemistry and urinalysis.
# Safety was the primary endpoint and was assessed at all visits (screening, baseline, Day 1, Day 6±1, Day 11±1, Day 16±1, Day 28±1, and Day 35±2 [follow-up]) based on: spontaneously reported treatment-emergent adverse events (TEAEs); scheduled physical and neurological examinations; vital sign measurements (body temperature, heart rate [HR], systolic and diastolic BP [SBP and DBP]); 12-lead ECG recordings; and clinical laboratory safety panel. The C-SSRS was administered at baseline and on Day 28±1. TEAEs were coded using the Medical Dictionary for Regulatory Activities (MedDRA) Version 20.
# All safety analyses used the safety set (SAF; randomised dose). The SAF (randomised dose) included all randomised patients who received at least one dose of the study drug; treatment group assignment was based on the initial randomised dose. All efficacy analyses were considered exploratory and used the full analysis set (FAS). The FAS included all randomised patients with at least one post-baseline efficacy measurement; treatment group assignment was based on the initial randomised dose. All summaries and analyses of PK data used the pharmacokinetic set (PKS). The PKS included all randomised patients with valid PK assessments; treatment group assignment was based on actual dose received.
# BP and HR were measured in triplicate, both supine and standing, in the same arm throughout the study. Standing BP and HR were measured after 3 minutes of standing, and supine BP and HR after 5 minutes of lying down. Measurements were repeated if clinically significant or machine/equipment errors occurred. Out-of-range BP or HR measurements were repeated at the investigator's discretion. Any confirmed clinically significant vital sign measurements were recorded as AEs. If the following measurements were obtained, instructions for additional monitoring, or stopping dosing were to be followed: • SBP>170 mmHg; DBP>110 mmHg • SBP or DBP increase >30% from Day 1 pre-dose level.
# Statistical evaluation was performed using Statistical analysis software (SAS®, SAS Institute, Cary, NC). Changes from baseline in vital signs were analysed using a mixed model for repeated measures with fixed effects for baseline, treatment, time-point and treatment by time-point interaction. The exploratory PD endpoints were analysed using an analysis of covariance with change from baseline as the dependent variable, and baseline and treatment as covariates. The least square means (LSM) for each dose (and difference from placebo) are presented with the 90% CI, P-value, and ES. […]
# [1] = two highest doses (15 and 25 mg)
smiles,measurement,setting,value
"CCOC(=O)N1C2CCC1CC(N1CCC3(CC1)CNC(=O)C3)C2 (stereo not shown) [HTL0018318, ethyl 3-(3-oxo-2,8-diazaspiro[4.5]dec-8-yl)-8-azabicyclo[3.2.1]octane-8-carboxylate]",Abdominal pain incidence,5 mg (n = 15),1 (6.7) n (%)
same,Accidental overdose incidence,5 mg (n = 15),1 (6.7) n (%)
same,Decreased lymphocyte count incidence,5 mg (n = 15),0 n (%)
same,Decreased white blood cell count incidence,5 mg (n = 15),0 n (%)
same,Diarrhoea incidence,5 mg (n = 15),1 (6.7) n (%)
same,Fatigue incidence,5 mg (n = 15),0 n (%)
same,Headache incidence,5 mg (n = 15),1 (6.7) n (%)
same,Hyperhidrosis incidence,5 mg (n = 15),0 n (%)
same,Lymphopenia incidence,5 mg (n = 15),0 n (%)
same,Nausea incidence,5 mg (n = 15),1 (6.7) n (%)
same,Number of TEAEs,5 mg (n = 15),18 n
same,SAE incidence,5 mg (n = 15),0 n (%)
same,TEAE Severity: Mild,5 mg (n = 15),7 (46.7) n (%)
same,TEAE Severity: Moderate,5 mg (n = 15),1 (6.7) n (%)
same,TEAE Severity: Severe,5 mg (n = 15),1 (6.7) n (%)
same,TEAE incidence,5 mg (n = 15),8 (53.3) n (%)
same,TEAE leading to discontinuation incidence,5 mg (n = 15),1 (6.7)^d n (%)
same,Treatment-related TEAE incidence,5 mg (n = 15),4 (26.7) n (%)
same,Urinary tract infection incidence,5 mg (n = 15),1 (6.7) n (%)
same,Viral upper respiratory tract infection incidence,5 mg (n = 15),1 (6.7) n (%)
same,TEAE incidence during maintenance (Days 16-28),5 mg (n = 17),4 (23.5) n (%)
same,TEAE incidence during titration (Days 1-15),5 mg (n = 17),8 (47.1) n (%)
same,TEAE incidence during maintenance (Days 16-28),10 mg (n = 1),0 n (%)
same,TEAE incidence during titration (Days 1-15),10 mg (n = 1),1 (100) n (%)
same,Abdominal pain incidence,15 mg (n = 14),0 n (%)
same,Accidental overdose incidence,15 mg (n = 14),1 (7.1) n (%)
same,Decreased lymphocyte count incidence,15 mg (n = 14),1 (7.1) n (%)
same,Decreased white blood cell count incidence,15 mg (n = 14),1 (7.1) n (%)
same,Diarrhoea incidence,15 mg (n = 14),0 n (%)
same,Fatigue incidence,15 mg (n = 14),0 n (%)
same,Headache incidence,15 mg (n = 14),3 (21.4) n (%)
same,Hyperhidrosis incidence,15 mg (n = 14),2 (14.3) n (%)
same,Lymphopenia incidence,15 mg (n = 14),1 (7.1) n (%)
same,Nausea incidence,15 mg (n = 14),1 (7.1) n (%)
same,Number of TEAEs,15 mg (n = 14),16 n
same,SAE incidence,15 mg (n = 14),0 n (%)
same,TEAE Severity: Mild,15 mg (n = 14),8 (57.1) n (%)
same,TEAE Severity: Moderate,15 mg (n = 14),1 (7.1) n (%)
same,TEAE Severity: Severe,15 mg (n = 14),0 n (%)
same,TEAE incidence,15 mg (n = 14),8 (57.1) n (%)
same,TEAE leading to discontinuation incidence,15 mg (n = 14),1 (7.1)^e n (%)
same,Treatment-related TEAE incidence,15 mg (n = 14),7 (50.0) n (%)
same,Urinary tract infection incidence,15 mg (n = 14),0 n (%)
same,Viral upper respiratory tract infection incidence,15 mg (n = 14),0 n (%)
same,TEAE incidence during maintenance (Days 16-28),15 mg (n = 16),2 (12.5) n (%)
same,TEAE incidence during titration (Days 1-15),15 mg (n = 16),8 (50.0) n (%)
same,TEAE incidence during maintenance (Days 16-28),25 mg (n = 11),2 (18.2) n (%)
same,TEAE incidence during titration (Days 1-15),25 mg (n = 11),6 (54.5) n (%)
same,Abdominal pain incidence,25 mg (n = 16),0 n (%)
same,Accidental overdose incidence,25 mg (n = 16),0 n (%)
same,Decreased lymphocyte count incidence,25 mg (n = 16),1 (6.3) n (%)
same,Decreased white blood cell count incidence,25 mg (n = 16),1 (6.3) n (%)
same,Diarrhoea incidence,25 mg (n = 16),1 (6.3) n (%)
same,Fatigue incidence,25 mg (n = 16),2 (12.5) n (%)
same,Headache incidence,25 mg (n = 16),3 (18.8) n (%)
same,Hyperhidrosis incidence,25 mg (n = 16),0 n (%)
same,Lymphopenia incidence,25 mg (n = 16),1 (6.3) n (%)
same,Nausea incidence,25 mg (n = 16),0 n (%)
same,Number of TEAEs,25 mg (n = 16),26 n
same,SAE incidence,25 mg (n = 16),0 n (%)
same,TEAE Severity: Mild,25 mg (n = 16),9 (56.3) n (%)
same,TEAE Severity: Moderate,25 mg (n = 16),4 (25.0) n (%)
same,TEAE Severity: Severe,25 mg (n = 16),0 n (%)
same,TEAE incidence,25 mg (n = 16),11 (68.8) n (%)
same,TEAE leading to discontinuation incidence,25 mg (n = 16),0 n (%)
same,Treatment-related TEAE incidence,25 mg (n = 16),5 (31.3) n (%)
same,Urinary tract infection incidence,25 mg (n = 16),1 (6.3) n (%)
same,Viral upper respiratory tract infection incidence,25 mg (n = 16),1 (6.3) n (%)
same,serious TEAEs or deaths,"5, 15, 25 mg",no serious TEAEs or deaths
same,tolerability,5-25 mg adjunctive to donepezil,generally well tolerated
same,orthostatic BP or HR,across doses,no significant changes
same,"physical or neurological examination findings, laboratory abnormalities, risk of suicide",across doses,"no clinically significant physical or neurological examination findings, or laboratory abnormalities"
same,maximum mean elevations in SBP and DBP above placebo,"all doses, at Tmax, Days 1, 6, 11",5-10 mmHg
same,patients who discontinued treatment due to TEAEs,"one on 5 mg, one on 15 mg",Two
same,"incidences of cholinergic TEAEs (abdominal pain, diarrhoea, fatigue, nausea)",[1],0-13%
same,maximum incidences of cholinergic TEAEs,[1],7-13%
